ChEMBL document CHEMBL6121047, “Design, Synthesis, and Evaluation of Selective PDE4 Inhibitors for the Therapy of Pulmonary Injury” (J Med Chem, 2025)
Calls of active or inactive are those of the source. The calls are words filed in the database; no cut-off is given here.

What was measured:
[1] = test system: Mus musculus; assay: Anti-inflammatory activity against LPS-induced acute lung injury male BALB/c mouse model assessed as restoration of alveolar cavities in lung at 8 to 32 mg/kg administered once a day via gavage for 7 days followed by LPS stimulation and measured after 24 hrs by H and E staining based microscopic analysis; type: functional, organism-based; settings: dose 8-32 mg/kg, time 192.0 hrs
[2] = test system: Mus musculus; assay: Anti-inflammatory activity against cigarette-smoke/LPS-induced COPD male C57BL/6 mouse model assessed as reduction in IL-6 level in BALF at 5 mg/kg pretreated with cigarette smoke exposure for 21 weeks with subsequent LPS induction twice on the first and 15th day followed by compound administration every day via gavage for 4 weeks; type: functional, organism-based
[3] = Acute toxicity in Sprague-Dawley rat assessed as pathological changes in heart at 1 g/Kg, po administered via gavage by H and E staining based analysis; type: organism-based; settings: in vivo, 1000 mg/kg
[4] = Half life in Sprague-Dawley rat at 5 mg/kg, iv measured upto 24 hrs by LC-MS/MS analysis; type: ADME, organism-based; settings: in vivo
[5] = test system: RAW264.7; assay: Anti-inflammatory activity in LPS-induced mouse RAW264.7 cells assessed as inhibition of IL-1 beta secretion level at 10 uM preincubated with compound for 1 hr followed by LPS addition and measured after 24 hrs by ELISA; type: functional, cell-based; settings: time 25.0 hrs
[6] = test system: Mus musculus; assay: Anti-inflammatory activity against LPS-induced acute lung injury male BALB/c mouse model assessed as enlarged bronchiole tubes in lung at 8 to 32 mg/kg administered once a day via gavage for 7 days followed by LPS stimulation and measured after 24 hrs by H and E staining based microscopic analysis; type: functional, organism-based; settings: dose 8-32 mg/kg, time 192.0 hrs
[7] = target: Voltage-gated inwardly rectifying potassium channel KCNH2 (Homo sapiens, UniProt Q12809); assay: Inhibition of hERG expressed in HEK293T cells; type: toxicity, cell-based
[8] = Acute toxicity in Sprague-Dawley rat assessed as effect on apparent kidney coefficient change at 1 g/Kg, po administered via gavage; type: organism-based; settings: in vivo, 1000 mg/kg
[9] = test system: BEAS-2B; assay: Anti-inflammatory activity in LPS-induced human BEAS-2B cells assessed as inhibition of IL-6 secretion level at 10 uM preincubated with compound for 1 hr followed by LPS addition and measured after 24 hrs by ELISA; type: functional, cell-based; settings: time 25.0 hrs
[10] = test system: Mus musculus; assay: Anti-inflammatory activity against LPS-induced acute lung injury male BALB/c mouse model assessed as reduction in TNF-alpha level in BALF at 8 to 32 mg/kg administered once a day via gavage for 7 days followed by LPS stimulation and measured after 24 hrs; type: functional, organism-based; settings: dose 8-32 mg/kg, time 192.0 hrs
[11] = Metabolic stability in rat liver microsomes assessed as half life incubated for 4 hrs in presence of NADPH by LC-MS analysis; type: ADME, Microsome
[12] = Apparent volume of distribution in Sprague-Dawley rat at 5 mg/kg, iv measured upto 24 hrs by LC-MS/MS analysis; type: ADME, organism-based; settings: in vivo, read-out: Vz
[13] = test system: Mus musculus; assay: Anti-inflammatory activity against LPS-induced acute lung injury male BALB/c mouse model assessed as reduction in IL-1beta level in BALF at 8 to 32 mg/kg administered once a day via gavage for 7 days followed by LPS stimulation and measured after 24 hrs; type: functional, organism-based; settings: dose 8-32 mg/kg, time 192.0 hrs
[14] = AUC (0 to infinity) in Sprague-Dawley rat at 10 mg/kg, po measured upto 24 hrs by LC-MS/MS analysis; type: ADME, organism-based; settings: in vivo
[15] = target: 3',5'-cyclic-AMP phosphodiesterase 4A (Homo sapiens, UniProt P27815); assay: Inhibition of PDE4A (unknown origin) using FAM-cAMP as substrate preincubated with compound for compound for 15 mins followed by substrate addition and measured after 30 mins by Envision multilabel reader analysis
[16] = test system: NCI-H292; assay: Anti-inflammatory activity against EGF-induced human NCI-H292 cells assessed as decrease in MUC5AC mRNA expression by RT-qPCR analysis; type: functional, cell-based; settings: dose 10-50 µM
[17] = Oral bioavailability in Sprague-Dawley rat at 10 mg/kg measured upto 24 hrs by LC-MS/MS analysis; type: ADME, organism-based; settings: in vivo
[18] = target: T1, 3',5'-cyclic-AMP phosphodiesterase 4B (Homo sapiens, UniProt Q07343); assay: Inhibition of PDE4B (unknown origin) using FAM-cAMP as substrate preincubated with compound for compound for 15 mins followed by substrate addition and measured after 30 mins by Envision multilabel reader analysis
[19] = Cmax in Sprague-Dawley rat at 10 mg/kg, po measured upto 24 hrs by LC-MS/MS analysis; type: ADME, organism-based; settings: in vivo
[20] = Metabolic stability in dog liver microsomes assessed as half life incubated for 4 hrs in presence of NADPH by LC-MS analysis; type: ADME, Canis lupus familiaris, Microsome
[21] = target: T1, 3',5'-cyclic-AMP phosphodiesterase 4B; assay: Inhibition of recombinant full length PDE4B (unknown origin) using FAM-cAMP as substrate at 1 uM preincubated with compound for compound for 15 mins followed by substrate addition and measured after 30 mins by Envision multilabel reader analysis relative to control; settings: time 45.0 min
[22] = test system: Mus musculus; assay: Anti-inflammatory activity against cigarette-smoke/LPS-induced COPD male C57BL/6 mouse model assessed as reduction in TNF-alpha level in BALF at 5 mg/kg pretreated with cigarette smoke exposure for 21 weeks with subsequent LPS induction twice on the first and 15th day followed by compound administration every day via gavage for 4 weeks; type: functional, organism-based
[23] = test system: Mus musculus; assay: Anti-inflammatory activity against LPS-induced acute lung injury male BALB/c mouse model assessed as restoration of alveolar septa in lung at 8 to 32 mg/kg administered once a day via gavage for 7 days followed by LPS stimulation and measured after 24 hrs by H and E staining based analysis; type: functional, organism-based; settings: dose 8-32 mg/kg, time 192.0 hrs
[24] = test system: RAW264.7; assay: Anti-inflammatory activity against cigarette-smoke/LPS-induced mouse RAW264.7 cells assessed as inhibition of phosphorylated p38 MAPK protein expression by Western blotting analysis; type: functional, cell-based
[25] = Acute toxicity in Sprague-Dawley rat assessed as pathological changes in kidney at 1 g/Kg, po administered via gavage by H and E staining based analysis; type: organism-based; settings: in vivo, 1000 mg/kg
[26] = test system: RAW264.7; assay: Cytotoxicity against mouse RAW264.7 cells assessed as reduction in cell viability incubated for 24 hrs by CCK-8 assay; type: toxicity, cell-based; settings: raw264.7, 24 h
[27] = Acute toxicity in Sprague-Dawley rat assessed as pathological changes in spleen at 1 g/Kg, po administered via gavage by H and E staining based analysis; type: organism-based; settings: in vivo, 1000 mg/kg
[28] = test system: Mus musculus; assay: Anti-inflammatory activity against LPS-induced acute lung injury male BALB/c mouse model assessed as reduction in IL-6 level in BALF at 8 to 32 mg/kg administered once a day via gavage for 7 days followed by LPS stimulation and measured after 24 hrs; type: functional, organism-based; settings: dose 8-32 mg/kg, time 192.0 hrs
[29] = test system: RAW264.7; assay: Anti-inflammatory activity in LPS-induced mouse RAW264.7 cells assessed as decrease in p38 MAPK protein level by Western blotting analysis; type: functional, cell-based
[30] = test system: RAW264.7; assay: Anti-inflammatory activity in LPS-induced mouse RAW264.7 cells assessed as inhibition of TNF-alpha secretion level at 10 uM preincubated with compound for 1 hr followed by LPS addition and measured after 24 hrs by ELISA; type: functional, cell-based; settings: time 25.0 hrs
[31] = Tmax in Sprague-Dawley rat at 10 mg/kg, po measured upto 24 hrs by LC-MS/MS analysis; type: ADME, organism-based; settings: in vivo
[32] = test system: Mus musculus; assay: Anti-inflammatory activity against LPS-induced acute lung injury male BALB/c mouse model assessed as reduction in total cell counts in BALF at 8 to 32 mg/kg administered once a day via gavage for 7 days followed by LPS stimulation and measured after 24 hrs; type: functional, organism-based; settings: dose 8-32 mg/kg, time 192.0 hrs

T1 sequence (Q07343 whole entry): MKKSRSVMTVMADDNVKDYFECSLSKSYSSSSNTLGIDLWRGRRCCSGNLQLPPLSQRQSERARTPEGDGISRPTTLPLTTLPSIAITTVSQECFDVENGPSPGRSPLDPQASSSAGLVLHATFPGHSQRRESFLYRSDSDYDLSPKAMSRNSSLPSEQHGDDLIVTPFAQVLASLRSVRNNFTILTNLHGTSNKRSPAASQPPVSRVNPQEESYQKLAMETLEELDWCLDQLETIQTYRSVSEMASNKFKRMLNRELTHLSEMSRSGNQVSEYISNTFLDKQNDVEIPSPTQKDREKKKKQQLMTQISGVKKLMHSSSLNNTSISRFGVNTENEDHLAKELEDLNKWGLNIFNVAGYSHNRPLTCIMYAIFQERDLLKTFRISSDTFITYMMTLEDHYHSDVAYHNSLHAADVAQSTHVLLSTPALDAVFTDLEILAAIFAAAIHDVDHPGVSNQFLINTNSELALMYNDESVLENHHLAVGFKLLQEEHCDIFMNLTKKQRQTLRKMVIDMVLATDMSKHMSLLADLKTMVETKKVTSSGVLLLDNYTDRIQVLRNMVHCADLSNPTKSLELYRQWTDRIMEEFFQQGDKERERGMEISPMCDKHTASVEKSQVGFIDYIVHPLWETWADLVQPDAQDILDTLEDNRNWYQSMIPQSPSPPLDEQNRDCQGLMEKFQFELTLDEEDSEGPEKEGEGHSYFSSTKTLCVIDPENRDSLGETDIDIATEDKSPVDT
Chain of Voltage-gated inwardly rectifying potassium channel KCNH2 (Q12809 whole entry): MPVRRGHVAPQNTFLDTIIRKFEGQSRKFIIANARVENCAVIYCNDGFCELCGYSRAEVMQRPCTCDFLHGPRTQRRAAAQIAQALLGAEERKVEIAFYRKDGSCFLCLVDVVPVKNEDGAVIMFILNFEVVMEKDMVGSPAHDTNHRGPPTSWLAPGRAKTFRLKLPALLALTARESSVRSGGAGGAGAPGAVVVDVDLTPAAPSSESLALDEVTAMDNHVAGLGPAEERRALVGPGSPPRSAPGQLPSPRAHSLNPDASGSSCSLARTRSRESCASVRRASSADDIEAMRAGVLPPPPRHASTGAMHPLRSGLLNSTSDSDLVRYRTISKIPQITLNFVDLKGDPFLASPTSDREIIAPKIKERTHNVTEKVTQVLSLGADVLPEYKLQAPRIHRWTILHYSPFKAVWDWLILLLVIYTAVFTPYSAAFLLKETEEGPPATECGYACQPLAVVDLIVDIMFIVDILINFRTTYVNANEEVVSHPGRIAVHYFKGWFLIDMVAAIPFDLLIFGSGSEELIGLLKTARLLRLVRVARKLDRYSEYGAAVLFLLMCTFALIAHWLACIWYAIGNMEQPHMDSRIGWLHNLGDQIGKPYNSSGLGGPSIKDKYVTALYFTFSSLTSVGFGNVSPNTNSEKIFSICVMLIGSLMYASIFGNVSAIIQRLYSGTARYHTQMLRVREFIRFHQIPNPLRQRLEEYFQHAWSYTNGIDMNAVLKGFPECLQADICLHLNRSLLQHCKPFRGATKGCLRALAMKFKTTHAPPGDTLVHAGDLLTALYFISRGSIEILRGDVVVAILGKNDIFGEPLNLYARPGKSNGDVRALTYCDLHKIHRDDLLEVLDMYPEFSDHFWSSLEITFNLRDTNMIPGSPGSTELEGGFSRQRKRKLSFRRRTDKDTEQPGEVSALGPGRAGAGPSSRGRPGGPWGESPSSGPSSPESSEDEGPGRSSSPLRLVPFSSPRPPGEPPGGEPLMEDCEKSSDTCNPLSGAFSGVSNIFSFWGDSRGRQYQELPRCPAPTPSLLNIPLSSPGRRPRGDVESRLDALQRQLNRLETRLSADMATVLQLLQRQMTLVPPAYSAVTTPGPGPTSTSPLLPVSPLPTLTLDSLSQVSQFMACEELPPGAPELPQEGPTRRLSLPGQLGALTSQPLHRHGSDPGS
Chain of 3',5'-cyclic-AMP phosphodiesterase 4A (P27815 whole entry): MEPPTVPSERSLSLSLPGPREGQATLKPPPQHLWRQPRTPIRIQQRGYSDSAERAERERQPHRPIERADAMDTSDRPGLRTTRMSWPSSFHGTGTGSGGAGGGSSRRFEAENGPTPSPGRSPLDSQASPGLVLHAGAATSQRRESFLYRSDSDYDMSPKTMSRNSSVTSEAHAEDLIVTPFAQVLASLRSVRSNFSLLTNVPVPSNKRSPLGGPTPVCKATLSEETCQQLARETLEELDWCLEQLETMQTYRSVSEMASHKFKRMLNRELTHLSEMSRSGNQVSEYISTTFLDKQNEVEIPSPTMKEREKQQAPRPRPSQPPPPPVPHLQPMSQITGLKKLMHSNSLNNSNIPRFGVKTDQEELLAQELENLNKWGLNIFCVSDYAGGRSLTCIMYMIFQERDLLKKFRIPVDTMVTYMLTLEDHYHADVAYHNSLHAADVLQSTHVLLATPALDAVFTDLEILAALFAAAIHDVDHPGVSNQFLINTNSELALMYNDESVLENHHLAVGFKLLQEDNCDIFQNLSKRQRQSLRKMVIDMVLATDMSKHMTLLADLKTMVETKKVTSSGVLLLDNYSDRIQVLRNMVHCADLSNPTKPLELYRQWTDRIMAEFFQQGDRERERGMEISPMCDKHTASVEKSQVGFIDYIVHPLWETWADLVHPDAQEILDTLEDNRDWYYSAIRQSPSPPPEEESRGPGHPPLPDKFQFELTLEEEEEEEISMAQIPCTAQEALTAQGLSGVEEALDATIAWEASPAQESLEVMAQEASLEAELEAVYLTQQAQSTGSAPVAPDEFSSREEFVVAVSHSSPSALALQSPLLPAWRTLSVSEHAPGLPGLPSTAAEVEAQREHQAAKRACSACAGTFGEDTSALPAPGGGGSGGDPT

In the case of `O=C(Nc1nccs1)c1cccc2[nH]c(-c3ccc(OC(F)F)c(OCC4CC4)c3)nc12`, the Activity [1] is reported as “Active”, the Activity [2] is reported as “Active” and the Activity [3] is reported as “Non-toxic”. The half-life [4] was 1.97 h, the Activity [5] was “Active” and the Activity [6] was “Active”. For the same molecule, the IC50 [7] was > 30 µM, the Activity [8] was “Non-toxic” and the Activity [9] was “Active”. For the same molecule, the Activity [10] was “Active”, the half-life [11] was 1.03 h and the Vd [12] was 0.606 L/kg. For the same molecule, the Activity [13] was “Active”, the AUC(0-inf) [14] was 2160 ng·h/mL and the IC50 [15] was 0.0897 µM. The Activity [16] was “Dose-dependent-effect”, the bioavailability [17] was 4.59% and the IC50 [18] was 0.0488 µM. The Cmax [19] was 219 ng/mL, the half-life [20] was 0.721 h and the inhibition [21] was 89.9%. For the same molecule, the Activity [22] was “Active”, the Activity [23] was “Active” and the Activity [24] was “Active”. The Activity [25] was “Non-toxic”, the Activity [26] was “Non-toxic” and the Activity [27] was “Non-toxic”. For the same molecule, the Activity [28] was “Active”, the Activity [29] was “Active” and the Activity [30] was “Active”. For the same molecule, the Tmax [31] was 3 h and the Activity [32] was “Active”.
